Literature values in patent publication US7604185B2, “Generation of therapeutic microfoam” (BTG International Ltd., priority 2002, dated 2009).

Settings: in water at STP

| Mole Fraction Solubility 10^−3 | SMILES |
| --- | --- |
| 61.5 10^−3 | O=C=O [Carbon dioxide] |
| 2.3 10^−3 | O=O [Oxygen] |
| 43.7 10^−3 | [N-]=[N+]=O [Nitrous oxide] |

| SMILES | Mole Fraction Solubility 10^−3 |
| --- | --- |
| [He] [Helium] | 0.7 10^−3 |
